The nature of the series: gradient 5% acetonitrile 3 min, to 50% in 2 min, to 85% in 15 min, held 3 min, 100 µL/min. The settings on record: column: Zorbax Extend-C18 2.1 x 50 mm; eluents: water / acetonitrile, 0.1% formic acid. A digest of the protocol:
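Pure standards were analyzed in mixtures of ~100 molecules using HPLC coupled to a quadrupole time-of-flight mass spectrometer, in both positive and negative ionization mode. Separation used a Zorbax Extend-C18 column (2.1 × 50 mm, 1.8 μm) at 100 μL/min, with water and acetonitrile each containing 0.1% formic acid. Dead and dwell volumes were 40 μL and 900 μL, and data were collected over 3 months. Retention time was read from computationally picked adduct peaks, each inspected manually.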
Compound `Cn1cc(-c2nc(C(=O)Nc3ccc(F)cc3F)cs2)c2cccnc21` came in with an RP-LC retention time of 1070 s.

The compound `Cc1cc(=O)n(CC(=O)Nc2ccc3c(c2)OCO3)c(N2CCCCC2)n1` showed an RP-LC retention time of 666 s.

As for `CCc1cccc(NC(=O)N2C[C@@H](F)C[C@H]2C(=O)N2CCc3ccccc3C2)c1`, the RP-LC retention time is 887 s.

Consider `COc1c(C(=O)NC2CC2)sc2ccc(Cl)cc12`, for which the RP-LC retention time was determined as 965 s.

For `CCC(C)(C)NC(=O)c1c(C)oc2ccn(Cc3ccc(F)cc3)c(=O)c12`, the RP-LC retention time turned out to be 1140 s.

Turning to `COc1cc(OC)cc(-c2nnc(Cc3nc(-c4cccc(F)c4)no3)o2)c1`, the RP-LC retention time came to 907 s.

In turn, `COc1ccc(OC)c(NC(=O)C2c3ccccc3C(=O)N3CCc4ccccc4C23)c1` (centres undefined) showed an RP-LC retention time of 903 s.

`O=C(c1ccsc1)N1CCCCC1c1nncn1CC1CC1` (centres undefined) displayed an RP-LC retention time of 681 s.

Compound `Cc1csc(-c2ccc(N3CCN(C(=O)c4ccoc4)CC3)nc2)n1` gave an RP-LC retention time of 716 s.

Compound `CC(C)n1c(CCNC(=O)Cc2ccsc2)nc2cccnc21` returned an RP-LC retention time of 624 s.

The compound `CC1(C(=O)NCc2ccccc2)CN(S(=O)(=O)c2ccccc2)CC(=O)N1c1cccc(Cl)c1` (centres undefined) displayed an RP-LC retention time of 958 s.

Take `CCc1cc(N2CCN(C(=O)c3ccc(N(C)C)cc3)CC2)nc2nncn12`: the RP-LC retention time came to 586 s.

As to `Cc1cc(C(=O)N2CCN(CCNC(=O)c3ccsc3)CC2)c(C)o1`, the RP-LC retention time came out at 554 s.

As for `O=c1c2oc3ccccc3c2ncn1Cc1nc(-c2ccc(F)cc2)no1`, the RP-LC retention time was found to be 945 s.

On to `O=C(O)c1nn(Cc2ccc(Cl)cc2Cl)c2ccccc12`, for which the RP-LC retention time was 1050 s.

As to `CCOC(=O)c1c(C)[nH]c(C)c1S(=O)(=O)N1CCC(C(=O)NCCN2CCCCCC2)CC1`, the RP-LC retention time stood at 592 s.

`COc1ccccc1N1CCN(c2ncc(C(=O)O)c(C)n2)CC1` gave an RP-LC retention time of 750 s.

Consider `CC(C)CNC(=O)N1CCN(Cc2nc3cc(C(=O)N(C)C)ccc3o2)CC1`, for which the RP-LC retention time came to 579 s.

With `O=C(NCCN1CCc2ccccc2C1)C1CCCN(c2ncnc3c2nc2n3CCCCC2)C1` (centres undefined), the RP-LC retention time amounted to 622 s.

`CCc1nn2c(CNS(=O)(=O)Cc3ccc(C)c(C)c3)c(-c3ccccc3)nc2s1` came in with an RP-LC retention time of 1040 s.

`O=c1c2sccc2n(Cc2nc(-c3ccc(Cl)c(F)c3)no2)c(=O)n1-c1cccc(F)c1` came in with an RP-LC retention time of 1090 s.

In turn, `Cn1cc(-c2noc(-c3cccs3)n2)ccc1=O` gave an RP-LC retention time of 778 s.

`O=C(c1cccs1)N1CCN(c2ccc(=O)n(-c3cccc(Cl)c3)n2)CC1` registered an RP-LC retention time of 814 s.

For `O=[N+]([O-])c1ccccc1S(=O)(=O)N1CCc2ccccc21`, the RP-LC retention time worked out at 893 s.

`Cc1cc(C)cc(-c2nc(-c3ccc4c(c3)oc(=O)n4C(C)C)no2)c1` returned an RP-LC retention time of 1140 s.

`CC(C)CC(=O)N[C@H](Cc1ccccc1)C(=O)NCc1cscn1` yielded an RP-LC retention time of 699 s.

Compound `COc1cccc(-n2c(N3CCCC(C(=O)NC4CC4)C3)nc3ccsc3c2=O)c1` (centres undefined) gave an RP-LC retention time of 710 s.

`O=C(Nc1ncc(Cc2cccc3ccccc23)s1)C1CC1`: the RP-LC retention time is 878 s.

`CCn1ccc(C(=O)Nc2cnc(N3CCCCC3)nc2)n1`: the RP-LC retention time is 778 s.

`COc1ccccc1N1CCN(CCCNc2cc(C(=O)O)c3ccccc3n2)CC1` registered an RP-LC retention time of 575 s.

On to `CS(=O)(=O)N1CCC(C(=O)N2CCC(Oc3nc4ccc(F)cc4s3)CC2)CC1`, for which the RP-LC retention time was determined as 779 s.

Compound `O=C(c1ccc2ncccc2c1)N1CCN(c2cc(-c3cccs3)[nH]n2)CC1` registered an RP-LC retention time of 641 s.

`O=C(Nc1nc(CC(=O)N2CCN(c3ccccc3O)CC2)cs1)c1cnccn1` showed an RP-LC retention time of 612 s.

The compound `CCOc1ccccc1CNC(=O)CN1CCN(Cc2ccccc2)C1=O` displayed an RP-LC retention time of 848 s.

`CC1=C(c2ccc(C)c(C)c2)S(=O)(=O)N=C1N1CCCN(C(=O)NC(C)C)CC1` returned an RP-LC retention time of 787 s.

With `COc1ccc(NC(=O)Nc2cccn3c(C4CCC4)nnc23)cc1F`, the RP-LC retention time worked out at 815 s.

For `CCc1ccc(CN2CCn3c(nn(C)c3=O)C2)cc1`, the RP-LC retention time worked out at 689 s.

The compound `O=S(=O)(c1ccc(Cl)cc1)N1CCC2(CC1)NCCN=C2NCc1ccc(F)cc1` showed an RP-LC retention time of 744 s.

In turn, `CCN1CCN(CCNC(=O)c2ccc3c(c2)N(C)C(=O)C2CCCCN32)CC1` (centres undefined) yielded an RP-LC retention time of 579 s.

In the case of `CCCn1c(=O)c(C)nc2cc(-c3noc(C4CC(=O)N(c5ccccc5)C4)n3)ccc21` (centres undefined), the RP-LC retention time came to 895 s.

The compound `CCOC(=O)c1cc(S(=O)(=O)N2CCCC2C(=O)N(Cc2ccco2)C2CCCC2)cn1C` (centres undefined) had an RP-LC retention time of 992 s.

`CCc1ccc(S(=O)(=O)c2cnc(N3CCC(C(N)=O)(N4CCCCC4)CC3)nc2N)cc1`: the RP-LC retention time was determined as 661 s.

In turn, `CNC(=O)c1ccc(-c2nc3cc(NS(=O)(=O)c4ccc(Br)cc4)ccc3n2C)cc1` displayed an RP-LC retention time of 673 s.

Take `CCOCCCNCc1ccc(-c2ccc(Cl)cc2)o1`: the RP-LC retention time turned out to be 687 s.

In turn, `CNC(=O)c1cccc(Nc2c(-c3ccccc3)nc3cnccn23)c1` displayed an RP-LC retention time of 645 s.

`O=C(NCc1ccc2c(c1)OCO2)C1CCCN(c2ncc(-c3cccc(F)c3)cn2)C1` (centres undefined) came in with an RP-LC retention time of 998 s.

`COc1ccc(Cl)cc1S(=O)(=O)N1CCC(c2cc3n(n2)CCCNC3=O)CC1` displayed an RP-LC retention time of 722 s.

Take `O=C(Nc1ccc(Cn2cncn2)cc1)c1ccc(Br)o1`: the RP-LC retention time came out at 708 s.

On to `COc1ccc(S(=O)(=O)Nc2cccc(-c3cn4cccc(C)c4n3)c2)cc1OC`, for which the RP-LC retention time was determined as 634 s.

The compound `CCOc1ccccc1-c1noc(Cn2c(=O)n(Cc3ccc(C)cc3)c(=O)c3sccc32)n1` returned an RP-LC retention time of 1170 s.

The compound `Cc1ccc(CNC(=O)C2(C)Cn3nc(C(=O)NCCN4CCCCC4)cc3C(=O)N2C)cc1` (centres undefined) registered an RP-LC retention time of 606 s.

For the compound `Cc1nnc2cc(N3CCN(Cc4cn[nH]c4-c4ccccc4)CC3)cnn12`, the RP-LC retention time came to 556 s.

Take `O=C(Cn1c(=O)oc2ccc(Cl)cc21)NC1CCCCC1`: the RP-LC retention time is 878 s.

Compound `COc1ccc(CCC(=O)NCC(C)(O)c2ccccc2)cc1` (centres undefined) yielded an RP-LC retention time of 709 s.

With `O=C(NCCc1ccccc1)NCCn1c(-c2ccccc2)nc2cccnc21`, the RP-LC retention time came to 683 s.

`CCOCC(=O)N1CCN(S(=O)(=O)c2c(C)nn(C(C)C)c2C)CC1`: the RP-LC retention time turned out to be 702 s.

`O=C(C1CC(=O)N(c2ccccc2)C1)N1CCSCC1` (centres undefined) came in with an RP-LC retention time of 828 s.

For the compound `CC(C)C(=O)NCc1csc(C2CCN(C(=O)COc3ccccc3)CC2)n1`, the RP-LC retention time worked out at 722 s.

`COc1cccc(-c2noc(Cc3nnc(-c4cccc(Br)c4)o3)n2)c1OC`: the RP-LC retention time came to 1010 s.

The values above are taken from the METLIN SMRT retention time set (Domingo-Almenara et al. 2019).
